Assay results: patent US20150141437A1, “AMIDOPHENOXYPROPANOLAMINES” (MEDIZINISCHE UNIVERSITÄT WIEN, priority 2012, published 2015)

What was measured:
[1] = tested on: P. falciparum K1 (CQ-resistant); experiment: [3H]-hypoxanthine incorporation assay, K1 strain; type: cell-based; conditions: Plasmodium falciparum, values marked with asterisk: [3H]-hypoxanthine assay, read-out: IC50 growth inhibition K1 (*)
[2] = tested on: P. falciparum NF54 (CQ sensitive); experiment: [3H]-hypoxanthine incorporation assay, NF54 strain; type: cell-based; conditions: Plasmodium falciparum, values marked with asterisk: [3H]-hypoxanthine assay, read-out: IC50 growth inhibition NF54*

Structure (SMILES)	IC50 [1] [nM]	IC50 [2] [nM]
O=C(Nc1cccc(C(F)(F)F)c1)c1ccccc1OCC(O)CN1CCC(Cc2ccccc2)CC1 (centres unmarked) [Compound I-68, 2-[3-(4-Benzyl-piperidin-1-yl)-2-hydroxy-propoxy]-N-(3-trifluoromethyl-phenyl)-benzamide]	2.3	8.6
O=C(Nc1ccc(F)cc1)c1cc(Cl)ccc1OCC(O)CNCC12CC3CC(CC(C3)C1)C2 (centres unmarked) [Compound I-66, 2-{3-[(Adamantan-1-ylmethyl)-amino]-2-hydroxy-pro-poxy}-5-chloro-N-(4-fluoro-phenyl)-benzamide]	0.6	2.4
O=C(Nc1ccccc1F)c1ccccc1OCC(O)CN1CCN(C(c2ccccc2)c2ccccc2)CC1 (centres unmarked) [Compound I-79, 2-[3-(4-Benzhydryl-piperazin-1-yl)-2-hydroxy-propoxy]-N-(2-fluoro-phenyl)-benzamide]	83	258
O=C(Nc1ccccc1F)c1ccccc1OCC(O)CNCC12CC3CC(CC(C3)C1)C2 (centres unmarked) [Compound I-38, 2-{3-[(Adamantan-1-ylmethyl)-amino]-2-hydroxy-propoxy}-N-(2-fluoro-phenyl)-benzamide]	8	24
O=C(Nc1ccccc1F)c1ccccc1OCC(O)CN1CCC(c2ccccc2)CC1 (centres unmarked) [Compound I-77, N-(2-Fluoro-phenyl)-2-[2-hydroxy-3-(4-phenyl-piperidin-1-yl)-propoxy]-benzamide]	105	256
CN(CC(O)COc1ccccc1C(=O)NCc1ccc(C2(C(F)(F)F)N=N2)cc1)C1C2CC3CC(C2)CC1C3 (centres unmarked) [Compound I-43, 2-[3-(Adamantan-2-yl-methyl-amino)-2-hydroxy-propoxy]-N-[4-(3-trifluoromethyl-3H-diazirin-3-yl)-benzyl]-benzamide]	28	119
O=C(Nc1ccc(F)cc1)c1ccccc1OCC(O)CNC12CC3CC(CC(C3)C1)C2 (centres unmarked) [Compound I-3, 2-[3-(Adamantan-1-ylamino)-2-hydroxy-propoxy]-N-(4-fluoro-phenyl)-benzamide]	11	51
O=C(NCc1ccc(C(F)(F)F)cc1)c1ccccc1OCC(O)CNCC12CC3CC(CC(C3)C1)C2 (centres unmarked) [Compound I-30, 2-{3-[(Adamantan-1-ylmethyl)-amino]-2-hydroxy-propoxy}-N-(4-trifluoromethyl-benzyl)-benzamide]	18	57
O=C(Nc1ccc(F)cc1)c1ccccc1OCC(O)CN1CCN(C23CC4CC(CC(C4)C2)C3)CC1 (centres unmarked) [Compound I-5, 2-[3-(4-Adamantan-1-yl-piperazin-1-yl)-2-hydroxy-propoxy]-N-(4-fluoro-phenyl)-benzamide]	12	59
O=C(NCCc1ccccc1)c1cc(Cl)ccc1OCC(O)CNC1C2CC3CC(C2)CC1C3 (centres unmarked) [Compound I-10, 2-[3-(Adamantan-2-ylamino)-2-hydroxy-propoxy]-5-chloro-N-phenethyl-benzamide]	26	96
O=C(Nc1cccc(C(F)(F)F)c1)c1cc(Cl)ccc1OCC(O)CN1CCC(Cc2ccccc2)CC1 (centres unmarked) [Compound I-84, 2-[3-(4-Benzyl-piperidin-1-yl)-2-hydroxy-propoxy]-5-chloro-N-(3-trifluoromethyl-phenyl)-benzamide]	1	3.8
C=CCc1ccccc1NC(=O)c1ccccc1OCC(O)CNCC12CC3CC(CC(C3)C1)C2 (centres unmarked) [Compound I-73, 2-{3-[(Adamantan-1-ylmethyl)-amino]-2-hydroxy-propoxy}-N-(2-allyl-phenyl)-benzamide]	21	73
Cc1ccc(NC(=O)c2ccccc2OCC(O)CN2CCN(C(c3ccccc3)c3ccccc3)CC2)cc1 (centres unmarked) [Compound I-82, 2-[3-(4-Benzhydryl-piperazin-1-yl)-2-hydroxy-propoxy]-N-p-tolyl-benzamide]	5.9	24
Cc1ccc(NC(=O)c2ccccc2OCC(O)CN2CCC(Cc3ccccc3)CC2)cc1 (centres unmarked) [Compound I-81, 2-[3-(4-Benzyl-piperidin-1-yl)-2-hydroxy-propoxy]-N-p-tolyl-benzamide]	8.6	36
O=C(Nc1ccc(Br)cc1)c1ccccc1OCC(O)CNCC12CC3CC(CC(C3)C1)C2 (centres unmarked) [Compound I-74, 2-{3-[(Adamantan-1-ylmethyl)-amino]-2-hydroxy-propoxy}-N-(4-bromo-phenyl)-benzamide]	1.2	4.8
CC(NCC(O)COc1ccc(Cl)cc1C(=O)NCc1cccc2ccccc12)C12CC3CC(CC(C3)C1)C2 (centres unmarked) [Compound I-35, 2-[3-(1-Adamantan-1-yl-ethylamino)-2-hydroxy-propoxy]-5-chloro-N-naphthalen-1-ylmethyl-benzamide]	4	14
O=C(Nc1ccc(F)cc1)c1ccccc1OCC(O)CN1CCC(c2ccccc2)CC1 (centres unmarked) [Compound I-46, N-(4-Fluoro-phenyl)-2-[2-hydroxy-3-(4-phenyl-piperidin-1-yl)-propoxy]-benzamide]	9	26
C=CCNCC(O)COc1ccccc1C(=O)Nc1ccccc1CC=C (centres unmarked) [Compound I-65, 2-(3-Allylamino-2-hydroxy-propoxy)-N-(2-allyl-phenyl)-benzamide]	488	2550
CN(CC(O)COc1ccccc1C(=O)Nc1ccc(F)cc1)CC12CC3CC(CC(C3)C1)C2 (centres unmarked) [Compound I-37, 2-[3-(Adamantan-1-ylmethyl-methyl-amino)-2-hydroxy-propoxy]-N-(4-fluoro-phenyl)-benzamide]	16	63
O=C(Nc1cccc(C(F)(F)F)c1)c1ccccc1OCC(O)CN1CCN(C(c2ccccc2)c2ccccc2)CC1 (centres unmarked) [Compound I-69, 2-[3-(4-Benzhydryl-piperazin-1-yl)-2-hydroxy-propoxy]-N-(3-trifluoromethyl-phenyl)-benzamide]	1.3	5.5
O=C(NCCCc1ccccc1)c1ccccc1OCC(O)CNCC12CC3CC(CC(C3)C1)C2 (centres unmarked) [Compound I-32, 2-{3-[(Adamantan-1-ylmethyl)-amino]-2-hydroxy-propoxy}-N-(3-phenyl-propyl)-benzamide]	52	148
CC(C)CCNC(=O)c1ccccc1OCC(O)CNCc1ccc(C(F)(F)F)cc1 (centres unmarked) [Compound I-60, 2-[2-Hydroxy-3-(4-trifluoromethyl-benzylamino)-propoxy]-N-(3-methyl-butyl)-benzamide]	371	1360
O=C(Nc1cccc(C(F)(F)F)c1)c1ccccc1OCC(O)CNC12CC3CC(CC(O)(C3)C1)C2 (centres unmarked) [Compound I-70, 2-[2-Hydroxy-3-(3-hydroxy-adamantan-1-ylamino)-propoxy]-N-(3-trifluoromethyl-phenyl)-benzamide]	921	1500
CC12CC3CC(C)(C1)CC(NCC(O)COc1ccccc1C(=O)Nc1ccc(F)cc1)(C3)C2 (centres unmarked) [Compound I-4, 2-[3-(3,5-Dimethyl-adamantan-1-ylamino)-2-hydroxy-propoxy]-N-(4-fluoro-phenyl)-benzamide]	8	38
O=C(NCCc1ccccc1)c1cc(Cl)ccc1OCC(O)CNCC12CC3CC(CC(C3)C1)C2 (centres unmarked) [Compound I-33, 2-{3-[(Adamantan-1-ylmethyl)-amino]-2-hydroxy-propoxy}-5-chloro-N-phenethyl-benzamide]	8	27
